Source: PubChem BioAssay (NCI)
“And” between values parts separate entries of the source, which are not always exact repeats. Equal entries are not always repeated.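 Test compounds were applied to cells in 96-well plates for 48 hours at 5 doses. The concentration for 50% growth inhibition is given as GI50. TGI marks complete inhibition of growth.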

Legend:
Test in all cases: growth of human tumour cells (NCI), 48 h
[1] = test system: HOP-92 NSCLC
[2] = test system: HT29 colon
[3] = test system: M14 melanoma
[4] = test system: MOLT-4 leukemia
[5] = test system: OVCAR-8 ovarian
[6] = test system: SF-295 CNS
[7] = test system: SK-MEL-5 melanoma
[8] = test system: SK-OV-3 ovarian
[9] = test system: U251 CNS
[10] = test system: UO-31 renal

| SMILES | GI50 [1] | TGI [1] | GI50 [2] | TGI [2] | GI50 [3] | TGI [3] | GI50 [4] | TGI [4] | GI50 [5] | TGI [5] | GI50 [6] | TGI [6] | GI50 [7] | TGI [7] | GI50 [8] | TGI [8] | GI50 [9] | TGI [9] | GI50 [10] | TGI [10] |
| --- | --- | --- | --- | --- | --- | --- | --- | --- | --- | --- | --- | --- | --- | --- | --- | --- | --- | --- | --- | --- |
| CS(=O)(=O)CCCn1c(=O)c(Oc2ccc(F)cc2F)cc2cnc(NC3CCOCC3)nc21 | > 25 µM | > 25 µM | > 25 µM | > 25 µM | > 25 µM | > 25 µM | > 25 µM | > 25 µM | > 25 µM | > 25 µM | > 25 µM | > 25 µM | > 25 µM | > 25 µM | > 25 µM | > 25 µM | > 25 µM | > 25 µM | > 25 µM | > 25 µM |
| COC1C(O)=C2C(=O)O/C(C)=C/C=C/C=C/C=C\CC(c3ccccc3)NC(=O)\C=C/C=C\C=C\C=C\[C@@]2(C)[C@@H]1O (some centres not stated) | – | < 0.0199 µM | – | 0.0531 µM | – | 0.35 µM | – | 0.177 µM | – | 0.243 µM | – | 0.0238 µM | – | 0.199 µM | – | 0.188 µM | – | 0.0195 µM | – | 0.0607 µM |
| CC(=O)c1cc2c(o1)C(=O)c1ccccc1C2=O | 2.18 µM and 1.82 µM | 4.24 µM and 3.47 µM | 0.226 µM and 0.276 µM | 0.529 µM and 0.756 µM | 0.169 µM and 0.183 µM | 0.322 µM and 0.345 µM | 0.57 µM and 0.865 µM | 1.85 µM and 3.65 µM | 0.411 µM and 0.378 µM | 1.32 µM and 1.53 µM | 0.173 µM | 0.332 µM and 0.317 µM | 0.169 µM and 0.173 µM | 0.31 µM and 0.316 µM | 1.41 µM and 1.78 µM | 2.86 µM and 3.3 µM | 0.197 µM and 0.256 µM | 0.378 µM and 0.682 µM | 0.219 µM and 0.217 µM | 0.57 µM and 0.531 µM |
| Cc1csc(Nc2nc(-c3cccc(Br)c3)nc(C(Cl)(Cl)Cl)n2)n1 | 1.1 µM | 6.16 µM | 0.56 µM | > 100 µM | > 100 µM | > 100 µM | > 40.9 µM | > 100 µM | > 29.2 µM | > 100 µM | 2.17 µM | > 100 µM | > 100 µM | > 100 µM | > 100 µM | > 100 µM | 1.83 µM | > 100 µM | 2.51 µM | > 100 µM |
| O=c1[nH]c(=O)n(C2CC(O)C(CO)O2)cc1CO (configuration not stated) | 43.3 µM | > 100 µM | > 100 µM | > 100 µM | > 100 µM | > 100 µM | > 100 µM | > 100 µM | > 100 µM | > 100 µM | > 100 µM | > 100 µM | > 100 µM | > 100 µM | > 100 µM | > 100 µM | 2.95 µM | > 100 µM | > 100 µM | > 100 µM |
| CC(CC(=O)O)C(C(=O)O)C(=O)O (configuration not stated) | – | > 100 µM | – | > 100 µM | – | > 100 µM | – | > 100 µM | – | > 100 µM | – | > 100 µM | – | > 100 µM | – | > 100 µM | – | > 100 µM | – | > 100 µM |
| O=c1cc2oc3cc(O)c(O)cc3c(-c3ccccc3O)c-2cc1O | 30.3 µM | > 100 µM | 44.4 µM | > 100 µM | 6.66 µM | 32.1 µM | 14.9 µM | > 100 µM | 16 µM | > 100 µM | 19.6 µM | 61.3 µM | 19.4 µM | > 100 µM | 7.65 µM | > 100 µM | 4.6 µM | > 100 µM | 3.3 µM | > 100 µM |
| N=c1ccn2c(n1)OC1C(O)C(CO)OC12 (configuration not stated) | 8.2 µM and 19.9 µM | > 811 µM | 6.23 µM | > 1000 µM | 0.228 µM | – | 0.016 µM | – | 0.481 µM | > 1000 µM | 5.93 µM | 359 µM and > 100 µM | 10.4 µM | > 1000 µM | 5.43 µM | > 696 µM | 2.11 µM | > 1000 µM | 3.08 µM and 0.355 µM | > 1000 µM |
| O=c1[nH]cc(COCCO)c(=O)[nH]1 | – | > 100 µM | – | > 100 µM | – | > 100 µM | – | > 100 µM | – | > 100 µM | – | > 100 µM | – | > 100 µM | – | > 100 µM | – | > 100 µM | – | > 100 µM |
| O=C(c1ccc(F)c(F)c1Nc1ccc(I)cc1F)N1CC(O)([C@@H]2CCCCN2)C1 | 0.0207 µM and 0.0577 µM | 0.239 µM and 0.65 µM | < 0.01 µM and 0.00367 µM | 11 µM and > 10 µM | < 0.01 µM and 0.00283 µM | 0.205 µM and 0.0436 µM | 4.62 µM and 5.26 µM | 18.8 µM and > 10 µM | 10.5 µM and > 10 µM | 24.5 µM and > 10 µM | 15.7 µM and > 10 µM | 32.4 µM and > 10 µM | – | 8.56 µM and > 10 µM | 5.46 µM and 3.26 µM | 20.6 µM and > 10 µM | 0.492 µM and 0.958 µM | 17.9 µM and > 10 µM | 0.0596 µM and 0.538 µM | 13.8 µM and > 10 µM |
| Cc1nc2cnc(N)c(C#Cc3cncc(C(=O)Nc4ccc(CN5CCN(C)CC5)c(C(F)(F)F)c4)c3)c2nc1C | 0.0646 µM | 0.566 µM | 0.0456 µM | 2.72 µM | 0.0903 µM | 0.339 µM | 0.859 µM | 18.3 µM | 1.43 µM | 13.8 µM | 3.02 µM | 19.6 µM | 0.748 µM | 6.07 µM | 1.63 µM | 9.15 µM | 2.52 µM | 19.5 µM | 1.28 µM | 5.67 µM |
| Cc1c(Cl)cccc1N1C(=O)C(Cl)=C(Cl)C1=O | – | > 100 µM | – | > 100 µM | – | > 100 µM | – | 28.1 µM | – | > 100 µM | – | > 100 µM | – | > 100 µM | – | > 100 µM | – | > 100 µM | – | > 100 µM |
| O=C(NCCCCN=c1cccccc1NCCCCNC(=O)OCc1ccccc1)OCc1ccccc1 | – | 20.1 µM | – | 18.7 µM | – | 29.4 µM | – | 38.1 µM | – | 47.7 µM | – | 26.9 µM | – | 33.1 µM | – | 45.5 µM | – | 32.1 µM | – | 21.4 µM |
| Ic1ccc(-n2nnnc2-c2cnoc2-c2ccccc2)cc1 | 37.9 µM | > 100 µM | > 100 µM | > 100 µM | 37.6 µM | > 67.3 µM | 70 µM | > 100 µM | > 50.4 µM | > 77 µM | 38.2 µM | > 77.8 µM | 25.7 µM | > 72.7 µM | > 65.4 µM | > 100 µM | 44.8 µM | > 100 µM | > 50.5 µM | > 100 µM |
| COc1cc(CNCCCN2C(=O)c3ccc4c5c(ccc(c35)C2=O)C(=O)N(CCCNCc2cc(OC)c(OC)c(OC)c2)C4=O)cc(OC)c1OC | 1.02 µM | 2.49 µM | 0.163 µM | 0.933 µM | 0.841 µM | 1.6 µM | 0.147 µM | 0.6 µM | 0.272 µM | 0.959 µM | 0.517 µM | 1.55 µM | 0.39 µM | 1.03 µM | 1.01 µM | 2.65 µM | 0.257 µM | 0.93 µM | 2.91 µM | 9.48 µM |
| CCCn1c(N)c(C(=O)N/N=C(/C)c2cc3cccc(OC)c3o2)sc1=S | 27.4 µM | 78.8 µM | 16.4 µM | > 100 µM | 53.8 µM | > 100 µM | 24.2 µM | > 100 µM | 13.8 µM | > 100 µM | 0.01 µM | 18.1 µM | 36.1 µM | > 100 µM | 65.4 µM | > 100 µM | 18.3 µM | 55.5 µM | 27.7 µM | > 100 µM |
| COc1ccncc1C#Cc1cncc(C(=O)Nc2ccc(CN3CCN(C)CC3)c(C(F)(F)F)c2)c1 | 4.83 µM | 57.2 µM | 9.33 µM | > 100 µM | 10.1 µM | 39.6 µM | 14.5 µM | > 100 µM | 27.1 µM | > 100 µM | 37.3 µM | > 100 µM | 39 µM | > 100 µM | 28.9 µM | > 100 µM | 35.6 µM | > 100 µM | 15.4 µM | > 100 µM |
| CCOc1ccc2c(c1)[n+]([O-])c(-c1ccccc1Cl)c(N)[n+]2[O-] | – | > 100 µM | – | > 100 µM | – | > 100 µM | – | > 100 µM | – | > 100 µM | – | > 100 µM | – | > 100 µM | – | > 100 µM | – | > 100 µM | – | > 100 µM |
| O=C(c1c(F)ccc(NS(=O)(=O)N2CC[C@@H](F)C2)c1F)c1c[nH]c2ncc(-c3cnc(C4CC4)nc3)cc12 | 0.576 µM and 2.24 µM | > 10 µM and 32.8 µM | 0.0124 µM and 0.0118 µM | > 10 µM and 12.4 µM | 0.00625 µM and < 0.01 µM | > 4.09 µM and 10.4 µM | 6.66 µM and 5.12 µM | > 10 µM and 35.5 µM | 5.22 µM and 7.06 µM | > 10 µM and 55.3 µM | 5.87 µM and 4.71 µM | > 10 µM and 33.5 µM | 1.01 µM and 0.651 µM | > 10 µM and 16.7 µM | 3.39 µM and 3.66 µM | > 10 µM and 21.4 µM | 5.94 µM and 7.53 µM | > 10 µM and 39.3 µM | 3.41 µM and 3.79 µM | > 10 µM and 25.5 µM |
| CC(=O)OC12c3ccccc3-c3ccccc3C1C1C(=O)N(C)C(=O)C12Cl (configuration not stated) | – | > 10 µM | – | > 10 µM | – | > 10 µM | – | > 10 µM | – | > 10 µM | – | > 10 µM | – | > 10 µM | – | > 10 µM | – | > 10 µM | – | > 10 µM |
| C=CC(=O)N1CCC(C2CCNc3c(C(N)=O)c(-c4ccc(Oc5ccccc5)cc4)nn32)CC1 (configuration not stated) | 2.47 µM | 15.7 µM | 16.6 µM | 55.8 µM | 15.4 µM | 33.1 µM | 5.36 µM | 31 µM | 16.9 µM | 59.2 µM | 17.9 µM | 70 µM | 10.6 µM | 22.9 µM | 0.572 µM | 5.33 µM | 19.7 µM | 96.3 µM | 1.94 µM | 24.3 µM |
| COC(=O)[C@]1(C)CCCC2(C)C1CC[C@H]1C=C(C)[C@H]3CCC12C3 (some centres not stated) | – | > 100 µM | – | > 100 µM | – | > 100 µM | – | > 100 µM | – | > 100 µM | – | > 100 µM | – | > 100 µM | – | > 100 µM | – | > 100 µM | – | > 100 µM |
| C[C@H]1Oc2cc(cnc2N)-c2c(nn(C)c2C#N)CN(C)C(=O)c2ccc(F)cc21 | 2.54 µM | > 54.2 µM | 5.76 µM | > 100 µM | 48.9 µM | > 100 µM | > 93.7 µM | > 100 µM | 98 µM | > 100 µM | 47.9 µM | > 100 µM | > 74.8 µM | > 100 µM | 22.1 µM | > 87 µM | > 100 µM | > 100 µM | 13.9 µM | 60.2 µM |
